In patent US20260138978A1, “POSITIVE ALLOSTERIC MODULATORS OF THE MUSCARINIC ACETYLCHOLINE RECEPTOR M1” (Vanderbilt University, priority 2022, published 2026):

Columns and labels:
human mAChRM1 [1] = molecular target: T1, human mAChRM1 (Homo sapiens, UniProt P11229); experiment: mAChR M1 cell-based functional assay (calcium mobilization), positive allosteric modulator activity: increase in the EC20 acetylcholine response; conditions: for Emax: PAM mode; for EC50: increase in the EC20 acetylcholine response, read-out: PAM Activity Human M1 EC50
T1 construct: host or cells: CHO-K1
T1 sequence (P11229 1-460): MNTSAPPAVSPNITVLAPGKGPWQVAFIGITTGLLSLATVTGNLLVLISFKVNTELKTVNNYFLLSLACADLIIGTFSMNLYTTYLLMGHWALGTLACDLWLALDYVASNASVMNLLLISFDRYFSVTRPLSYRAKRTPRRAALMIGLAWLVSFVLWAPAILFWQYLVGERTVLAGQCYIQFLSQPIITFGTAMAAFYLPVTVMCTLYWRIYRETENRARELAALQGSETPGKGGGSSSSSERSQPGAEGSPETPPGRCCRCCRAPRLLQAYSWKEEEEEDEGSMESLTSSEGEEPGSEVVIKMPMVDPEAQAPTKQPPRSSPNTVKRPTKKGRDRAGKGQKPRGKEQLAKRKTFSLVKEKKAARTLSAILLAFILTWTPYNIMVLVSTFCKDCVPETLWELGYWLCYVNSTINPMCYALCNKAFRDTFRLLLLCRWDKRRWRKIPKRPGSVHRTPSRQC
Procedure, shortened: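 CHO-K1 cells stably expressing human M1, loaded with Fluo-4 AM; calcium flux recorded on FDSS at 1 Hz over 300 s following compound addition. PAM activity is the concentration-dependent increase of an EC20 acetylcholine response; EC50 and Emax from four-parameter logistic fits of 11-point, 1:3 concentration series.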

human mAChRM1 [2] = molecular target: T1, human mAChRM1; experiment: mAChR M1 cell-based functional assay (calcium mobilization), agonist activity upon compound addition, Emax relative to acetylcholine maximum; conditions: for EC50 / Agonist Activity Human M1 EC50: calcium mobilization upon compound addition; for Emax: relative to the maximum for acetylcholine
Procedure, shortened: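 CHO-K1 cells stably expressing human M1 were loaded with Fluo-4 AM for 50 min at 37 °C. Compound was added 4 s into a 300 s FDSS read at 1 Hz, over 11-point 1:3 dilution curves. Agonism was taken as a concentration-dependent rise in calcium fluorescence ratio, with Emax expressed relative to the acetylcholine maximum from four-parameter logistic fits.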

| Emax (human mAChRM1 [1]) | EC50 (human mAChRM1 [1]) | EC50 (human mAChRM1 [2]) | Emax (human mAChRM1 [2]) | Agonist Activity Human M1 EC50 (human mAChRM1 [2]) | SMILES |
| --- | --- | --- | --- | --- | --- |
| 87% | 119 nM | 4020 nM | 31% | – | [2H]C1([2H])c2ncccc2C(=O)N1Cc1c(F)cc(-c2ccc(C(C)(C)O)c3nn(C)cc23)cc1F [Compound 142, 6-(2,6-Difluoro-4-(7-(2-hydroxypropan-2-yl)-2-methyl-2H-indazol-4-yl)benzyl)-6,7-dihydro-5H-pyrrolo[3,4-b]pyridin-5-one-7,7-d2] |
| 62% | 145 nM | 3780 nM | 12% | – | [2H]C1([2H])c2ncccc2C(=O)N1Cc1c(F)cc(-c2ccc(C(C)(C)O)c3nn(C([2H])([2H])[2H])cc23)cc1F [Compound 145, 6-(2,6-difluoro-4-(7-(2-hydroxypropan-2-yl)-2-(methyl-d3)-2H-indazol-4-yl)benzyl)-6,7-dihydro-5H-pyrrolo[3,4-b]pyridin-5-one-7,7-d2] |
| 89% | 206 nM | ≥ 10000 nM | 27% | – | [2H]C1([2H])c2ncccc2C(=O)N1Cc1cc(F)c(-c2ccc(C(C)(C)O)c3nn(C)cc23)cc1F [Compound 148, 6-(2,5-difluoro-4-(7-(2-hydroxypropan-2-yl)-2-methyl-2H-indazol-4-yl)benzyl)-6,7-dihydro-5H-pyrrolo[3,4-b]pyridin-5-one-7,7-d2] |
| 88% | 623 nM | – | – | inactive | [2H]C1([2H])c2ncccc2C(=O)N1Cc1ccc(-c2ccc(C(C)(C)O)c3nn(C)cc23)c(F)c1F [Compound 149, 6-(2,3-Difluoro-4-(7-(2-hydroxypropan-2-yl)-2-methyl-2H-indazol-4-yl)benzyl)-6,7-dihydro-5H-pyrrolo[3,4-b]pyridin-5-one-7,7-d2] |
| 79% | 364 nM | 6720 nM | 23% | – | [2H]C1([2H])c2ncccc2C(=O)N1Cc1c(Cl)cc(-c2ccc(C(C)(C)O)c3nn(C)cc23)cc1C1CC1 [Compound 150, 6-(2-chloro-6-cyclopropyl-4-(7-(2-hydroxypropan-2-yl)-2-methyl-2H-indazol-4-yl)benzyl)-6,7-dihydro-5H-pyrrolo[3,4-b]pyridin-5-one-7,7-d2] |
| 85% | 1270 nM | – | – | inactive | [2H]C1([2H])c2ncccc2C(=O)N1Cc1c(F)cc(-c2ccc(C(C)(C)O)c3nn(C)cc23)cc1N1CCC1 [Compound 151, 6-(2-(azetidin-1-yl)-6-fluoro-4-(7-(2-hydroxypropan-2-yl)-2-methyl-2H-indazol-4-yl)benzyl)-6,7-dihydro-5H-pyrrolo[3,4-b]pyridin-5-one-7,7-d2] |
| 74% | 3360 nM | – | – | inactive | [2H]C1([2H])c2ncccc2C(=O)N1Cc1c(F)cc(-c2ccc(C(C)(C)O)c3nn(C)cc23)cc1C1CCCC1 [Compound 152, 6-(2-cyclopentyl-6-fluoro-4-(7-(2-hydroxypropan-2-yl)-2-methyl-2H-indazol-4-yl)benzyl)-6,7-dihydro-5H-pyrrolo[3,4-b]pyridin-5-one-7,7-d2] |
| 35% | ≥ 10000 nM | – | – | inactive | [2H]C1([2H])c2ncccc2C(=O)N1Cc1ccc(-c2ccc(C(C)(C)O)c3nn(C)cc23)cc1C(C)C [Compound 153, 6-(4-(7-(2-hydroxypropan-2-yl)-2-methyl-2H-indazol-4-yl)-2-isopropylbenzyl)-6,7-dihydro-5H-pyrrolo[3,4-b]pyridin-5-one-7,7-d2] |
| 87% | 64 nM | – | – | inactive | Cn1cc2c(-c3cc(F)c(CN4Cc5cccc(F)c5C4=O)c(F)c3)ccc(C(C)(C)O)c2n1 [Compound 154, 2-(2,6-difluoro-4-(7-(2-hydroxypropan-2-yl)-2-methyl-2H-indazol-4-yl)benzyl)-7-fluoroisoindolin-1-one] |
| 75% | 358 nM | – | – | inactive | Cn1cc2cc(-c3cc(F)c(CN4Cc5cccc(F)c5C4=O)c(F)c3)cc(C(C)(C)O)c2n1 [Compound 155, 2-(2,6-difluoro-4-(7-(2-hydroxypropan-2-yl)-2-methyl-2H-indazol-5-yl)benzyl)-7-fluoroisoindolin-1-one] |
| 83% | 136 nM | – | – | inactive | [2H]C([2H])([2H])C(O)(c1ccc(-c2cc(F)c(CN3Cc4cccc(F)c4C3=O)c(F)c2)c2cn(C)nc12)C([2H])([2H])[2H] [Compound 156, 2-(2,6-difluoro-4-(7-(2-hydroxypropan-2-yl-1,1,1,3,3,3-d)-2-methyl-2H-indazol-4-yl)benzyl)-7-fluoroisoindolin-1-one] |
| 61% | ≥ 10000 nM | – | – | inactive | Cn1ncc2c(-c3cc(F)c(CN4Cc5cccc(F)c5C4=O)c(F)c3)ccc(C(C)(C)O)c21 [Compound 157, 2-(2,6-difluoro-4-(7-(2-hydroxypropan-2-yl)-1-methyl-1H-indazol-4-yl)benzyl)-7-fluoroisoindolin-1-one] |
| 77% | 450 nM | – | – | inactive | Cn1cc2c(-c3cc(F)c(CN4Cc5cccc(F)c5C4=O)c(F)c3)ccc(C(C)(O)C(F)F)c2n1 (stereo not drawn) [Compound 158, 2-(4-(7-(1,1-difluoro-2-hydroxypropan-2-yl)-2-methyl-2H-indazol-4-yl)-2,6-difluorobenzyl)-7-fluoroisoindolin-1-one] |
| 81% | 118 nM | – | – | inactive | Cn1cc2c(-c3cc(F)c(CN4Cc5cccc(F)c5C4=O)c(F)c3)ccc(C3(O)COC3)c2n1 [Compound 159, 2-(2,6-difluoro-4-(7-(3-hydroxyoxetan-3-yl)-2-methyl-2H-indazol-4-yl)benzyl)-7-fluoroisoindolin-1-one] |
| 80% | 296 nM | – | – | inactive | Cn1cc2c(-c3ccc(CN4Cc5cccc(F)c5C4=O)c(F)c3)ccc(C(C)(C)O)c2n1 [Compound 160, 7-fluoro-2-(2-fluoro-4-(7-(2-hydroxypropan-2-yl)-2-methyl-2H-indazol-4-yl)benzyl)isoindolin-1-one] |
| 80% | 521 nM | – | – | inactive | Cc1cc(-c2ccc(C(C)(C)O)c3nn(C)cc23)ccc1CN1Cc2cccc(F)c2C1=O [Compound 161, 7-fluoro-2-(4-(7-(2-hydroxypropan-2-yl)-2-methyl-2H-indazol-4-yl)-2-methylbenzyl)isoindolin-1-one] |
| 75% | 202 nM | ≥ 10000 nM | 19% | – | Cc1cc(-c2ccc(C(C)(C)O)c3nn(C)cc23)cc(F)c1CN1Cc2cccc(F)c2C1=O [Compound 162, 7-fluoro-2-(2-fluoro-4-(7-(2-hydroxypropan-2-yl)-2-methyl-2H-indazol-4-yl)-6-methylbenzyl)isoindolin-1-one] |
| 78% | 124 nM | ≥ 10000 nM | 11% | – | Cn1cc2c(-c3cc(F)c(CN4Cc5cccc(F)c5C4=O)cc3F)ccc(C(C)(C)O)c2n1 [Compound 163, 2-(2,5-difluoro-4-(7-(2-hydroxypropan-2-yl)-2-methyl-2H-indazol-4-yl)benzyl)-7-fluoroisoindolin-1-one] |
| 71% | 1210 nM | – | – | inactive | Cn1cc2c(-c3ccc(CN4Cc5cccc(F)c5C4=O)c(F)c3F)ccc(C(C)(C)O)c2n1 [Compound 164, 2-(2,3-difluoro-4-(7-(2-hydroxypropan-2-yl)-2-methyl-2H-indazol-4-yl)benzyl)-7-fluoroisoindolin-1-one] |
| 80% | 361 nM | – | – | inactive | Cn1cc2c(-c3cc(F)c(CN4Cc5cccc(F)c5C4=O)c(Cl)c3)ccc(C(C)(C)O)c2n1 [Compound 165, 2-(2-chloro-6-fluoro-4-(7-(2-hydroxypropan-2-yl)-2-methyl-2H-indazol-4-yl)benzyl)-7-fluoroisoindolin-1-one] |
| 76% | 744 nM | – | – | inactive | Cn1cc2cc(-c3ccc(CN4Cc5cccc(F)c5C4=O)c(F)c3)cc(C(C)(C)O)c2n1 [Compound 166, 7-fluoro-2-(2-fluoro-4-(7-(2-hydroxypropan-2-yl)-2-methyl-2H-indazol-5-yl)benzyl)isoindolin-1-one] |
| 74% | 3120 nM | – | – | inactive | Cc1cc(-c2cc(C(C)(C)O)c3nn(C)cc3c2)ccc1CN1Cc2cccc(F)c2C1=O [Compound 167, 7-fluoro-2-(4-(7-(2-hydroxypropan-2-yl)-2-methyl-2H-indazol-5-yl)-2-methylbenzyl)isoindolin-1-one] |
| 79% | 998 nM | – | – | inactive | Cc1cc(-c2cc(C(C)(C)O)c3nn(C)cc3c2)cc(F)c1CN1Cc2cccc(F)c2C1=O [Compound 168, 7-fluoro-2-(2-fluoro-4-(7-(2-hydroxypropan-2-yl)-2-methyl-2H-indazol-5-yl)-6-methylbenzyl)isoindolin-1-one] |
